Paper PMC8217170, “Phase Ib dose-escalation study of the hypoxia-modifier Myo-inositol trispyrophosphate in patients with hepatopancreatobiliary tumors” (Nature Communications, 2021)

Test: Plasma levels and pharmacokinetics of intravenous ITPP

O=P1(O)OC2C3OP(=O)(O)OP(=O)(O)OC3C3OP(=O)(O)OP(=O)(O)OC3C2OP(=O)(O)O1 (centres unmarked) [ITPP, Myo-inositol trispyrophosphate]
ITPP plasma level, Concentration (Cohort 6, Patient 18, Day 5, Hour 10): 60.6 µg/mL | ITPP plasma level, Concentration (Cohort 6, Patient 19, Day 1, Hour 0): 0 µg/mL | ITPP plasma level, Concentration (Cohort 6, Patient 19, Day 1, Hour 3): 392 µg/mL | ITPP plasma level, Concentration (Cohort 6, Patient 19, Day 1, Hour 6): 294 µg/mL | ITPP plasma level, Concentration (Cohort 6, Patient 19, Day 1, Hour 8.5): 219 µg/mL | ITPP plasma level, Concentration (Cohort 6, Patient 19, Day 1, Hour 9): 185 µg/mL | ITPP plasma level, Concentration (Cohort 6, Patient 19, Day 1, Hour 10): 154 µg/mL | ITPP plasma level, Concentration (Cohort 6, Patient 19, Day 5, Hour 0): 0 µg/mL | ITPP plasma level, Concentration (Cohort 6, Patient 19, Day 5, Hour 3): 287 µg/mL | ITPP plasma level, Concentration (Cohort 6, Patient 19, Day 5, Hour 6): 329 µg/mL | ITPP plasma level, Concentration (Cohort 6, Patient 19, Day 5, Hour 8.5): 265 µg/mL | ITPP plasma level, Concentration (Cohort 6, Patient 19, Day 5, Hour 9): 244 µg/mL | ITPP plasma level, Concentration (Cohort 6, Patient 19, Day 5, Hour 10): 216 µg/mL | ITPP plasma level, Concentration (Cohort 6, Patient 20, Day 1, Hour 0): 0 µg/mL | ITPP plasma level, Concentration (Cohort 6, Patient 20, Day 1, Hour 3): 279 µg/mL | ITPP plasma level, Concentration (Cohort 6, Patient 20, Day 1, Hour 6): 307 µg/mL | ITPP plasma level, Concentration (Cohort 6, Patient 20, Day 1, Hour 8.5): 282 µg/mL | ITPP plasma level, Concentration (Cohort 6, Patient 20, Day 1, Hour 9): 396 µg/mL | ITPP plasma level, Concentration (Cohort 6, Patient 20, Day 1, Hour 10): 396 µg/mL | ITPP plasma level, Concentration (Cohort 6, Patient 20, Day 5, Hour 0): 0 µg/mL | ITPP plasma level, Concentration (Cohort 6, Patient 20, Day 5, Hour 3): 411 µg/mL | ITPP plasma level, Concentration (Cohort 6, Patient 20, Day 5, Hour 6): 595 µg/mL | ITPP plasma level, Concentration (Cohort 6, Patient 20, Day 5, Hour 8.5): 466 µg/mL | ITPP plasma level, Concentration (Cohort 6, Patient 20, Day 5, Hour 9): 301 µg/mL | ITPP plasma level, Concentration (Cohort 6, Patient 20, Day 5, Hour 10): 279 µg/mL | ITPP plasma level, Concentration (Cohort 6, Patient 21, Day 1, Hour 0): 0 µg/mL | ITPP plasma level, Concentration (Cohort 6, Patient 21, Day 1, Hour 3): 249 µg/mL | ITPP plasma level, Concentration (Cohort 6, Patient 21, Day 1, Hour 6): 325 µg/mL | ITPP plasma level, Concentration (Cohort 6, Patient 21, Day 1, Hour 8.5): 281 µg/mL | ITPP plasma level, Concentration (Cohort 6, Patient 21, Day 1, Hour 9): 241 µg/mL | ITPP plasma level, Concentration (Cohort 6, Patient 21, Day 1, Hour 10): 172 µg/mL | ITPP plasma level, Concentration (Cohort 6, Patient 21, Day 5, Hour 0): 0 µg/mL | ITPP plasma level, Concentration (Cohort 6, Patient 21, Day 5, Hour 3): 350 µg/mL | ITPP plasma level, Concentration (Cohort 6, Patient 21, Day 5, Hour 6): 204 µg/mL | ITPP plasma level, Concentration (Cohort 6, Patient 21, Day 5, Hour 8.5): 217 µg/mL | ITPP plasma level, Concentration (Cohort 6, Patient 21, Day 5, Hour 9): 184 µg/mL | ITPP plasma level, Concentration (Cohort 6, Patient 21, Day 5, Hour 10): 125 µg/mL | ITPP plasma level, Concentration (Cohort 7, Patient 22, Day 1, Hour 0): 0 µg/mL | ITPP plasma level, Concentration (Cohort 7, Patient 22, Day 1, Hour 3): 280 µg/mL | ITPP plasma level, Concentration (Cohort 7, Patient 22, Day 1, Hour 6): 384 µg/mL | ITPP plasma level, Concentration (Cohort 7, Patient 22, Day 1, Hour 8.5): 281 µg/mL | ITPP plasma level, Concentration (Cohort 7, Patient 22, Day 1, Hour 9): 215 µg/mL | ITPP plasma level, Concentration (Cohort 7, Patient 22, Day 1, Hour 10): 152 µg/mL | ITPP plasma level, Concentration (Cohort 7, Patient 22, Day 5, Hour 0): 0 µg/mL | ITPP plasma level, Concentration (Cohort 7, Patient 22, Day 5, Hour 3): 257 µg/mL | ITPP plasma level, Concentration (Cohort 7, Patient 22, Day 5, Hour 6): 351 µg/mL | ITPP plasma level, Concentration (Cohort 7, Patient 22, Day 5, Hour 8.5): 319 µg/mL | ITPP plasma level, Concentration (Cohort 7, Patient 22, Day 5, Hour 9): 302 µg/mL | ITPP plasma level, Concentration (Cohort 7, Patient 22, Day 5, Hour 10): 203 µg/mL | ITPP plasma level, Concentration (Cohort 7, Patient 23, Day 1, Hour 0): 0 µg/mL | ITPP plasma level, Concentration (Cohort 7, Patient 23, Day 1, Hour 3): 286 µg/mL | ITPP plasma level, Concentration (Cohort 7, Patient 23, Day 1, Hour 6): 329 µg/mL | ITPP plasma level, Concentration (Cohort 7, Patient 23, Day 1, Hour 8.5): 316 µg/mL | ITPP plasma level, Concentration (Cohort 7, Patient 23, Day 1, Hour 9): 178 µg/mL | ITPP plasma level, Concentration (Cohort 7, Patient 23, Day 1, Hour 10): 119 µg/mL | ITPP plasma level, Concentration (Cohort 7, Patient 23, Day 5, Hour 0): 0 µg/mL | ITPP plasma level, Concentration (Cohort 7, Patient 23, Day 5, Hour 3): 282 µg/mL | ITPP plasma level, Concentration (Cohort 7, Patient 23, Day 5, Hour 6): 478 µg/mL | ITPP plasma level, Concentration (Cohort 7, Patient 23, Day 5, Hour 8.5): 418 µg/mL | ITPP plasma level, Concentration (Cohort 7, Patient 23, Day 5, Hour 9): 188 µg/mL | ITPP plasma level, Concentration (Cohort 7, Patient 23, Day 5, Hour 10): 185 µg/mL | ITPP plasma level, Concentration (Cohort 7, Patient 24, Day 1, Hour 0): 0 µg/mL | ITPP plasma level, Concentration (Cohort 7, Patient 24, Day 1, Hour 3): 278 µg/mL | ITPP plasma level, Concentration (Cohort 7, Patient 24, Day 1, Hour 6): 230 µg/mL | ITPP plasma level, Concentration (Cohort 7, Patient 24, Day 1, Hour 8.5): 226 µg/mL | ITPP plasma level, Concentration (Cohort 7, Patient 24, Day 1, Hour 9): 152 µg/mL | ITPP plasma level, Concentration (Cohort 7, Patient 24, Day 1, Hour 10): 103 µg/mL | ITPP plasma level, Concentration (Cohort 7, Patient 24, Day 2, Hour 0): 0 µg/mL | ITPP plasma level, Concentration (Cohort 7, Patient 24, Day 2, Hour 9): 143 µg/mL | ITPP plasma level, Concentration (Cohort 7, Patient 24, Day 3, Hour 0): 0 µg/mL | ITPP plasma level, Concentration (Cohort 7, Patient 24, Day 3, Hour 9): 237 µg/mL | ITPP plasma level, Concentration (Cohort 7, Patient 24, Day 4, Hour 0): 0 µg/mL | ITPP plasma level, Concentration (Cohort 7, Patient 24, Day 4, Hour 9): 199 µg/mL | ITPP plasma level, Concentration (Cohort 7, Patient 24, Day 5, Hour 0): 0 µg/mL | ITPP plasma level, Concentration (Cohort 7, Patient 24, Day 5, Hour 3): 299 µg/mL | ITPP plasma level, Concentration (Cohort 7, Patient 24, Day 5, Hour 6): 358 µg/mL | ITPP plasma level, Concentration (Cohort 7, Patient 24, Day 5, Hour 8.5): 245 µg/mL | ITPP plasma level, Concentration (Cohort 7, Patient 24, Day 5, Hour 9): 200 µg/mL | ITPP plasma level, Concentration (Cohort 7, Patient 24, Day 5, Hour 10): 141 µg/mL | ITPP plasma level, Concentration (Cohort 7, Patient 24, Day 6, Hour 0): 0 µg/mL | ITPP plasma level, Concentration (Cohort 7, Patient 24, Day 6, Hour 9): 200 µg/mL | ITPP plasma level, Concentration (Cohort 7, Patient 24, Day 7, Hour 0): 0 µg/mL | ITPP plasma level, Concentration (Cohort 7, Patient 24, Day 7, Hour 9): 208 µg/mL | ITPP plasma level, Concentration (Cohort 7, Patient 24, Day 8, Hour 0): 0 µg/mL | ITPP plasma level, Concentration (Cohort 7, Patient 24, Day 8, Hour 9): 181 µg/mL | ITPP plasma level, Concentration (Cohort 7, Patient 24, Day 9, Hour 0): 0 µg/mL | ITPP plasma level, Concentration (Cohort 7, Patient 24, Day 9, Hour 3): 247 µg/mL | ITPP plasma level, Concentration (Cohort 7, Patient 24, Day 9, Hour 6): 345 µg/mL | ITPP plasma level, Concentration (Cohort 7, Patient 24, Day 9, Hour 8.5): 217 µg/mL | ITPP plasma level, Concentration (Cohort 7, Patient 24, Day 9, Hour 9): 199 µg/mL | ITPP plasma level, Concentration (Cohort 7, Patient 24, Day 9, Hour 10): 143 µg/mL | ITPP plasma level, Concentration (Cohort 8, Patient 25, Day 1, Hour 0): 0 µg/mL | ITPP plasma level, Concentration (Cohort 8, Patient 25, Day 1, Hour 3): 388 µg/mL | ITPP plasma level, Concentration (Cohort 8, Patient 25, Day 1, Hour 6): 497 µg/mL | ITPP plasma level, Concentration (Cohort 8, Patient 25, Day 1, Hour 8.5): 505 µg/mL | ITPP plasma level, Concentration (Cohort 8, Patient 25, Day 1, Hour 9): 317 µg/mL | ITPP plasma level, Concentration (Cohort 8, Patient 25, Day 1, Hour 10): 194 µg/mL | ITPP plasma level, Concentration (Cohort 8, Patient 25, Day 5, Hour 0): 0 µg/mL | ITPP plasma level, Concentration (Cohort 8, Patient 25, Day 5, Hour 3): 354 µg/mL | ITPP plasma level, Concentration (Cohort 8, Patient 25, Day 5, Hour 6): 495 µg/mL | AUC (cohort 1, 1866 mg/m2): 350.7 µg·h/mL | AUMC (cohort 1, 1866 mg/m2): 1994.7 h2*mg/L | CL (cohort 1, 1866 mg/m2): 4.8 L/h | Clast (cohort 1, 1866 mg/m2): 19200 ng/mL | Cmax (cohort 1, 1866 mg/m2): 47200 ng/mL | Cmin (cohort 1, 1866 mg/m2): 0 ng/mL | Elimination rate λz (cohort 1, 1866 mg/m2): 0.5 h⁻¹ | Half life/T0.5 (cohort 1, 1866 mg/m2): 1.3 h | MRT (cohort 1, 1866 mg/m2): 1.7 h | Tlast (cohort 1, 1866 mg/m2): 10.0 h
